According to patent publication US20230265151A1, “GIP/GLP1 CO-AGONIST COMPOUNDS” (priority 2020, published 2023):
Like-named read-outs stand apart in the source and are kept apart here.

Assays:
[1] = biological target: T1, human Gcg receptor (hGcgR) (Homo sapiens, UniProt P47871); test: [125I]-Glucagon binding, SPA with membranes of HEK293 cells expressing hGcgR; settings: human GcgR; geometric mean (SEM, n); read-out: Binding Affinity Ki, nM (SEM, n) hGCGR
T1 construct: expressed in transfected cells; crude membranes

hGCGR = biological target: T2, hGCGR (Homo sapiens, UniProt P47871); test: Functional cAMP formation (HTRF) in HEK-293 clonal cells expressing hGCGR, 0.1% bovine casein, without or with 1.0% human serum albumin; assay type: cell-based; settings: geometric mean, read-out: hGCGR EC50, nM (SEM, n)
T2 construct: expressed in transfected cells
Summary of the method: (§1)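 Readings of the HTRF 665/620 nm ratio, which falls as cAMP rises, were converted to nM cAMP using a standard curve after 30 min peptide exposure at 37° C.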

hGIPR = biological target: T3, hGIPR (Homo sapiens, UniProt P48546); test: Functional cAMP formation (HTRF) in HEK-293 clonal cells expressing hGIPR, 0.1% bovine casein, without or with 1.0% human serum albumin; assay type: cell-based; settings: for EC50: geometric mean, read-out: hGIPR EC50, nM (SEM, n); for Emax: read-out: hGIPR Emax, % ± SEM
T3 construct: expressed in transfected cells
T3 sequence (P48546 22-466): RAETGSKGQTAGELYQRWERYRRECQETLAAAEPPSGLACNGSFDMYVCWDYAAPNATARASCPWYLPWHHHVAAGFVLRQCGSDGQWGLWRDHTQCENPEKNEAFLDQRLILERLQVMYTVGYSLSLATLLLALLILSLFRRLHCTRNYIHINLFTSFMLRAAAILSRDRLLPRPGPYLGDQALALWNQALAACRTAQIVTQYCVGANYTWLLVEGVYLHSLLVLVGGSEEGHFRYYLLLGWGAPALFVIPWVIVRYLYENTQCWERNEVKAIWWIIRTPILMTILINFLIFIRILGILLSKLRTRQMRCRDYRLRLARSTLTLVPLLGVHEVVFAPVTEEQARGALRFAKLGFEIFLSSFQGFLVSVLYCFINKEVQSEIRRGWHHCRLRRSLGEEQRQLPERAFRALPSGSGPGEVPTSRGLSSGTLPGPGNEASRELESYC
Summary of the method: as §1

hGLP-1R = hGLP-1R (Homo sapiens, UniProt P43220); test: Functional cAMP formation (HTRF) in HEK-293 clonal cells expressing hGLP-1R, 0.1% bovine casein, without or with 1.0% human serum albumin; assay type: cell-based; parameters: expressed in transfected cells; settings: for EC50: geometric mean, read-out: hGLP-1R EC50, nM (SEM, n); for Emax: read-out: hGLP-1R Emax, % ± SEM
Summary of the method: as §1

[2] = 0.1% bovine casein and 1.0% human serum albumin, 37° C.
[3] = cAMP, incubated at 37° C., 0.1% bovine casein (no human serum albumin)
[4] = HEK293, 0.1% bovine casein and 1.0% human serum albumin, 37° C., percent of maximal response to GIP(1-42)NH2
[5] = HEK293, percent of maximal response to GIP(1-42)NH2, 37° C., 0.1% bovine casein, arithmetic mean
[6] = HEK293, 0.1% bovine casein and 1.0% human serum albumin, 37° C., percent of maximal response to GLP-1(7-36)NH2

Sequence of hGLP-1R (P43220 24-463): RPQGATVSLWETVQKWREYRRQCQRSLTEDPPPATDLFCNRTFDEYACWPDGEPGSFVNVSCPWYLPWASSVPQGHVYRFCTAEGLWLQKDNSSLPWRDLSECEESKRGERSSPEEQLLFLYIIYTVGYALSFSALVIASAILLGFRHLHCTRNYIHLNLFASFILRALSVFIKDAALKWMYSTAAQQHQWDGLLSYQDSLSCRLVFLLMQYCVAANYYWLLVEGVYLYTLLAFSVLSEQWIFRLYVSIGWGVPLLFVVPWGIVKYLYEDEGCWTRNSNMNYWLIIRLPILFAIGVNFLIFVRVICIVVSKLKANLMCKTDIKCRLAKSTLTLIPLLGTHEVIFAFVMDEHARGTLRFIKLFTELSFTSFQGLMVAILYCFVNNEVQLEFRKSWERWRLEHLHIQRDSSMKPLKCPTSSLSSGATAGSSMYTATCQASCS
T1 sequence (P47871 26-477): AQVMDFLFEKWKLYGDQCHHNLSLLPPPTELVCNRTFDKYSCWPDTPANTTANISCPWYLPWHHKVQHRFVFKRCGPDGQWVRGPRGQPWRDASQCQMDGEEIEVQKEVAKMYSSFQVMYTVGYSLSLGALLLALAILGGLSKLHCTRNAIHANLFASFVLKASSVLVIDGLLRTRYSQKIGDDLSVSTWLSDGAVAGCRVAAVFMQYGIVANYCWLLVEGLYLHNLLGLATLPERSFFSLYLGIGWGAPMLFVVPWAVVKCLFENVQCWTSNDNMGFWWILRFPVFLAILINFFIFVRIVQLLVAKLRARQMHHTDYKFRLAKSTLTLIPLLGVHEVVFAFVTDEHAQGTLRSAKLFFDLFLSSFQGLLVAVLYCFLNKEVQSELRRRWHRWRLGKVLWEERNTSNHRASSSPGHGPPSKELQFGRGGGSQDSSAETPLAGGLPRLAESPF
T2 sequence (P47871 26-477): as above

| SMILES | Ki [1] | EC50 (hGCGR; [2]) | EC50 (hGCGR; [3]) | EC50 (hGIPR; [2]) | Emax (hGIPR; [4]) | Emax (hGIPR; [5]) | EC50 (hGLP-1R; [3]) | EC50 (hGLP-1R; [2]) | Emax (hGLP-1R; [6]) | EC50 (hGIPR; [3]) | Emax (hGLP-1R; HEK293, percent of maximal response to GLP-1(7-36)NH2, 37° C., 0.1% bovine casein, arithmetic mean) |
| --- | --- | --- | --- | --- | --- | --- | --- | --- | --- | --- | --- |
| CC[C@H](C)[C@H](NC(=O)[C@H](CC(C)C)NC(=O)[C@](C)(Cc1ccc(O)cc1)NC(=O)[C@@H](CCC(=O)O)NC(=O)[C@@H](NC(=O)[C@H](Cc1ccccc1)NC(=O)[C@H](CCC(=O)O)NC(=O)C(C)(C)NC(=O)[C@H](CCC(N)=O)NC(=O)[C@H](C)NC(=O)[C@H](CCCCNC(=O)COCCOCCNC(=O)COCCOCCNC(=O)CC[C@H](NC(=O)CCCCCCCCCCCCC(=O)O)C(=O)O)NC(=O)[C@H](CCCN)NC(=O)[C@H](CC(=O)O)NC(=O)[C@H](CC(C)C)NC(=O)[C@](C)(CC(C)C)NC(=O)[C@H](CCCCNC(=O)COCCOCCNC(=O)COCCOCCNC(=O)CC[C@H](NC(=O)CCCCCCCCCCCCC(=O)O)C(=O)O)NC(=O)[C@H](CO)NC(=O)[C@H](Cc1ccncc1)NC(=O)[C@H](CC(=O)O)NC(=O)[C@H](CO)NC(=O)[C@@H](NC(=O)[C@](C)(Cc1ccccc1F)NC(=O)[C@@H](NC(=O)CNC(=O)[C@H](CCC(=O)O)NC(=O)C(C)(C)NC(=O)[C@@H](N)Cc1ccc(O)cc1)[C@@H](C)O)[C@@H](C)O)[C@@H](C)CC)C(=O)N[C@@H](CCC(=O)O)C(=O)NCC(=O)NCC(=O)N1CCC[C@H]1C(=O)N[C@@H](CO)C(=O)N[C@@H](CO)C(=O)NCC(=O)N[C@@H](C)C(=O)N1CCC[C@H]1C(=O)N1CCC[C@H]1C(=O)N1CCC[C@H]1C(=O)N[C@@H](CO)C(N)=O [Example 28] | > 966 nM | > 9950 nM | > 9950 nM | 2.08 nM | 93 ± 7.02% | 95.4 ± 1.58% | 2.65 nM | – | – | – | – |
| CC[C@H](C)[C@H](NC(=O)[C@H](CC(C)C)NC(=O)[C@](C)(Cc1ccc(O)cc1)NC(=O)[C@@H](CCC(=O)O)NC(=O)[C@@H](NC(=O)[C@H](Cc1ccccc1)NC(=O)[C@H](CCC(=O)O)NC(=O)C(C)(C)NC(=O)[C@H](CCC(N)=O)NC(=O)[C@H](C)NC(=O)[C@H](CCCCNC(=O)COCCOCCNC(=O)COCCOCCNC(=O)CC[C@H](NC(=O)CCCCCCCCCCCCC(=O)O)C(=O)O)NC(=O)[C@H](CCCN)NC(=O)[C@H](CC(=O)O)NC(=O)[C@H](CC(C)C)NC(=O)[C@](C)(CC(C)C)NC(=O)[C@@H](NC(=O)[C@H](CO)NC(=O)[C@H](CCCCNC(=O)COCCOCCNC(=O)COCCOCCNC(=O)CC[C@H](NC(=O)CCCCCCCCCCCCC(=O)O)C(=O)O)NC(=O)[C@H](CC(=O)O)NC(=O)[C@H](CO)NC(=O)[C@@H](NC(=O)[C@](C)(Cc1ccccc1F)NC(=O)[C@@H](NC(=O)CNC(=O)[C@H](CCC(=O)O)NC(=O)C(C)(C)NC(=O)[C@@H](N)Cc1ccc(O)cc1)[C@@H](C)O)[C@@H](C)O)[C@@H](C)CC)[C@@H](C)CC)C(=O)N[C@@H](CCC(=O)O)C(=O)NCC(=O)NCC(=O)N1CCC[C@H]1C(=O)N[C@@H](CO)C(=O)N[C@@H](CO)C(=O)NCC(=O)N[C@@H](C)C(=O)N1CCC[C@H]1C(=O)N1CCC[C@H]1C(=O)N1CCC[C@H]1C(=O)N[C@@H](CO)C(N)=O [Example 27] | > 958 nM | > 9950 nM | > 9950 nM | 6.78 nM | 82.8 ± 1.14% | 88.8% | – | 70.2 nM | 110 ± 3.03% | – | – |
| CC[C@H](C)[C@H](NC(=O)[C@H](CC(C)C)NC(=O)[C@](C)(Cc1ccc(O)cc1)NC(=O)[C@@H](CCC(=O)O)NC(=O)[C@@H](NC(=O)[C@H](Cc1ccccc1)NC(=O)[C@H](CCC(=O)O)NC(=O)C(C)(C)NC(=O)[C@H](CCC(N)=O)NC(=O)[C@H](C)NC(=O)[C@H](CCCCNC(=O)COCCOCCNC(=O)COCCOCCNC(=O)[C@@H](N)CCCCNC(=O)CC[C@H](NC(=O)CCCCCCCCCCCCC(=O)O)C(=O)O)NC(=O)[C@H](CCCN)NC(=O)[C@H](CC(=O)O)NC(=O)[C@H](CC(C)C)NC(=O)[C@](C)(CC(C)C)NC(=O)[C@@H](NC(=O)[C@H](CO)NC(=O)[C@H](Cc1ccncc1)NC(=O)[C@H](CC(=O)O)NC(=O)[C@H](CO)NC(=O)[C@@H](NC(=O)[C@](C)(Cc1ccccc1F)NC(=O)[C@@H](NC(=O)CNC(=O)[C@H](CCC(=O)O)NC(=O)C(C)(C)NC(=O)[C@@H](N)Cc1ccc(O)cc1)[C@@H](C)O)[C@@H](C)O)[C@@H](C)CC)[C@@H](C)CC)C(=O)N[C@@H](CCC(=O)O)C(=O)NCC(=O)NCC(=O)N[C@@H](CCCCNC(=O)COCCOCCNC(=O)COCCOCCNC(=O)[C@@H](N)CCCCNC(=O)CC[C@H](NC(=O)CCCCCCCCCCCCC(=O)O)C(=O)O)C(=O)N[C@@H](CO)C(=O)N[C@@H](CO)C(=O)NCC(=O)N[C@@H](C)C(=O)N1CCC[C@H]1C(=O)N1CCC[C@H]1C(=O)N1CCC[C@H]1C(=O)N[C@@H](CO)C(N)=O [Example 34] | > 957 nM | > 9950 nM | > 9950 nM | 0.213 nM | 89.1 ± 2% | 97.4 ± 2.34% | 1 nM | 19.8 nM | – | 0.0148 nM | – |
| CC[C@H](C)[C@H](NC(=O)[C@H](CC(C)C)NC(=O)[C@](C)(Cc1ccc(O)cc1)NC(=O)[C@@H](CCC(=O)O)NC(=O)[C@@H](NC(=O)[C@H](Cc1cccc(Cl)c1)NC(=O)[C@H](CCC(=O)O)NC(=O)C(C)(C)NC(=O)[C@H](CCC(N)=O)NC(=O)[C@H](C)NC(=O)[C@H](CCCCNC(=O)COCCOCCNC(=O)COCCOCCNC(=O)CC[C@H](NC(=O)CCCCCCCCCCCCC(=O)O)C(=O)O)NC(=O)[C@H](CCCN)NC(=O)[C@H](CC(=O)O)NC(=O)[C@H](CC(C)C)NC(=O)[C@](C)(CC(C)C)NC(=O)[C@@H](NC(=O)[C@H](CO)NC(=O)[C@H](Cc1ccncc1)NC(=O)[C@H](CC(=O)O)NC(=O)[C@H](CO)NC(=O)[C@@H](NC(=O)[C@](C)(Cc1ccccc1F)NC(=O)[C@@H](NC(=O)CNC(=O)[C@H](CCC(=O)O)NC(=O)C(C)(C)NC(=O)[C@@H](N)Cc1ccc(O)cc1)[C@@H](C)O)[C@@H](C)O)[C@@H](C)CC)[C@@H](C)CC)C(=O)N[C@@H](CCC(=O)O)C(=O)NCC(=O)NCC(=O)N[C@@H](CCCCNC(=O)COCCOCCNC(=O)COCCOCCNC(=O)CC[C@H](NC(=O)CCCCCCCCCCCCC(=O)O)C(=O)O)C(=O)N[C@@H](CO)C(=O)N[C@@H](CO)C(=O)NCC(=O)N[C@@H](C)C(=O)N1CCC[C@H]1C(=O)N1CCC[C@H]1C(=O)N1CCC[C@H]1C(=O)N[C@@H](CO)C(N)=O [Example 62] | > 4780 nM | > 9950 nM | > 9950 nM | – | 94.3 ± 0.785% | 96.1 ± 2.64% | – | – | 85.8 ± 3.31% | 0.0211 nM | 99.4 ± 5.83% |
